Results as given in patent publication US11530213B2, “Naphthyridinone derivatives and their use in the treatment of arrhythmia” (NOVARTIS AG, priority 2016, dated 2022).

biological target: GIRK1/4 (Homo sapiens (Human), UniProt P48544+P48549); experiment: GIRK1/4 inhibition, Quattro (IonWorks) population patch clamp, inward potassium current in GIRK 1/4 HEK293 stable cells (test assay No. 1); format: cell-based; conditions: percentage of current inhibition normalized to DMSO-only control
Protocol: The activity of a compound according to the present invention can be assessed by the following in vitro method. • 1. Buffers: • a. External buffer: 10 mM NaCl, 50 mM Na Gluconate, 80 mM K Gluconate, 1.8 mM CaCl2, 1 mM MgCl2, 10 mM HEPES, 10 mM Glucose, pH 7.4; osmolality […]. • b. Internal buffer: 30 mM KCl, 100 mM K Gluconate, 1 mM MgCl2, 10 mM HEPES, 1 mM EGTA, 10 mM NaCl, pH 7.2; osmolality […]. • 2. Compounds: • a. Prepare seven-fold compound dilution series (10 mM to 20 uM) in 100% DMSO, in 384-well polypropylene plates. • b. Propafenone (Sigma Aldrich, catalog number P4670) is used as a positive control and DMSO for neutral control • c. Resuspend 1 ul of compounds in DMSO into 65.7 ul external buffer in 384-well polypropylene plate and load into Plate 1 section of Molecular Devices Quattro • 3. Quattro setup: • a. Load 384-well Population Patch Plate (Molecular Devices #9000-0902) into Quattro • b. Fill Quattro F-soak trough with 20% DMSO and 50% EtOH • c. Fill Quattro buffer trough with external buffer • d. Attach internal buffer flask to Quattro internal buffer tubing • e. Attach PBS (Phosphate Buffered Saline, minus Ca^++ and Mg^++, pH7.4) bottle to F-head & E-head wash on Quattro • 4. Antibiotic: • a. Resuspend 5.6 mg amphotericin B (Sigma Aldrich, catalog number A2411) in 175 ul DMSO • b. Add the resulting solution to 50 ml internal buffer, mix and attach to antibiotic tubing port on Quattro • 5. Cells: • a. Use GIRK 1/4 HEK293 stable cells (obtained from ChanTest, 14656 Neo Parkway, Cleveland, Ohio 44128) grown to […] confluency in the following cell culture medium: DMEM containing 10% (v/v) Fetal Bovine Serum, Penicillin/Streptomycin (at “1×” concentration from a 100× stock), 0.5 mg/ml G418 and 0.1 mg/ml Zeocin. • b. Wash cells with PBS (minus Ca^++ and Mg^++), Detach cells using Detachin (Genlantis, 11011 Torreyana, San Diego, Calif. 92121), and resuspend in external buffer (5 ml final volume at 2.0-2.1×10^6 cells/ml) • c. Load into cell trough of Quattro • 6. Assay Protocol: • Quattro is controlled using IonWorks v2 software to perform the following steps: • a. Add 3.5 ul cells plus 3.5 ul external buffer to wells of Quattro Patch Plate • b. Circulate amphotericin B and internal buffer onto cells • c. Apply the following voltage protocol: Pulse 1: 15 mV for 300 milliseconds (ms), followed by Pulse 2: −120 mV for 400 ms, then Pulse 3: −15 mV for 400 ms, and finally Pulse 4: −120 mV to 40 mV over 500 ms (this is a voltage ramp). • d. Measure magnitude of inward potassium current at time point between 1200-1220 ms from start of Pulse 1 (i.e. during the voltage ramp phase). • e. Add 3.5 ul of diluted compounds (or DMSO) to wells and repeat steps c-d (final compound concentrations are 50 uM to 0.1 uM, for potent compounds 0.5 uM to 0.01 uM and each concentration is tested in quadruplicate—i.e. in 4 separate wells). • f. The difference between current magnitude pre vs. post-compound gives a measure of GIRK1/4 inhibition. • 7. Data analysis:
IC50 values are calculated by plotting the percentage of current inhibition (normalized to the DMSO-only control) as a function of compound concentration using standard data analysis software.

GIRK1/4, sequence (P48549 whole entry): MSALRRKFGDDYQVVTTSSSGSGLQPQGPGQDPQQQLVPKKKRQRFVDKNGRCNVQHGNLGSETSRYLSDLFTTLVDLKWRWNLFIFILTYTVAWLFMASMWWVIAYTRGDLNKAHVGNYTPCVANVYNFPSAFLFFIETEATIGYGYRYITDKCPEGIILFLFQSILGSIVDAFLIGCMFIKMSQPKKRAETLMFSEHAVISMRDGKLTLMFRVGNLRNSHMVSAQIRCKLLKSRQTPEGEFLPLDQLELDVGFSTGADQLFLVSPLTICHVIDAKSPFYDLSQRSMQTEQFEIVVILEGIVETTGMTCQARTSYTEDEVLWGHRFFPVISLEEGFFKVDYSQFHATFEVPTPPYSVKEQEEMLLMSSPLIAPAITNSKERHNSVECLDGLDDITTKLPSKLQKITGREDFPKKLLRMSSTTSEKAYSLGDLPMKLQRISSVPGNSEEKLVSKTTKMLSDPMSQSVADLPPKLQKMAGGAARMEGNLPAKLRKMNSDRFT
GIRK1/4, sequence (P48544 whole entry): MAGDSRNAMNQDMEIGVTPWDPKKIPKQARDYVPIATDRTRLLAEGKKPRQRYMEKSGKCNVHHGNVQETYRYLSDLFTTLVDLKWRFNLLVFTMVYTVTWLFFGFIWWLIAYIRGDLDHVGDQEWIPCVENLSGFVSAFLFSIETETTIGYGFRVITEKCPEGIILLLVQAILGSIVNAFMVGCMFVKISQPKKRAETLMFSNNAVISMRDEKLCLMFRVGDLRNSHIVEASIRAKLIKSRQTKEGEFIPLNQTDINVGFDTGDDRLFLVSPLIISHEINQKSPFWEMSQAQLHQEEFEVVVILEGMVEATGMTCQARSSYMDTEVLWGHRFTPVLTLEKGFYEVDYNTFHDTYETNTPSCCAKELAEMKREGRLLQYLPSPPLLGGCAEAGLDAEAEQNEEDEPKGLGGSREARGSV

Row | Compound | IC50 [nM]
1 | Cc1cc(=O)c2c(NCCc3c[nH]cn3)ncc(Cl)c2n1-c1c(Cl)cccc1Cl [Example 35, 5-((2-(1H-imidazol-4-yl)ethyl)amino)-8-chloro-1-(2,6-dichlorophenyl)-2-methyl-1,6-naphthyridin-4(1H)-one] | 35
2 | Cc1cc(=O)c2c(OCCNS(C)(=O)=O)ncc(Cl)c2n1-c1c(Cl)cccc1Cl [Example 36, N-(2-((8-chloro-1-(2,6-dichlorophenyl)-2-methyl-4-oxo-1,4-dihydro-1,6-naphthyridin-5-yl)oxy)ethyl)methanesulfonamide] | 9
3 | Cc1cc(=O)c2c(NCCOCCOCCOCCO)ncc(Cl)c2n1-c1c(Cl)cccc1Cl [Example 37, 8-chloro-1-(2,6-dichlorophenyl)-5-((2-(2-(2-(2-hydroxyethoxy)ethoxy)ethoxy)ethyl)amino)-2-methyl-1,6-naphthyridin-4(1H)-one] | 6
4 | Cc1cc(=O)c2c(OCC(O)CO)ncc(Cl)c2n1-c1c(Cl)cccc1Cl (stereo not drawn) [Example 38, 8-chloro-1-(2,6-dichlorophenyl)-5-(2,3-dihydroxypropoxy)-2-methyl-1,6-naphthyridin-4(1H)-one] | 8
5 | Cc1cc(=O)c2c(NC[C@H](O)CO)ncc(Cl)c2n1-c1c(Cl)cccc1Cl [Example 39, (S)-8-chloro-1-(2,6-dichlorophenyl)-5-((2,3-dihydroxypropyl)amino)-2-methyl-1,6-naphthyridin-4(1H)-one] | 15
6 | Cc1cc(=O)c2c(OCC(O)C(C)(C)O)ncc(Cl)c2n1-c1c(Cl)cccc1Cl (stereo not drawn) [Example 40, 8-chloro-1-(2,6-chlorophenyl)-5-(2,3-dihydroxy-3-methylbutoxy)-2-methyl-1,6-naphthyridin-4(1H)-one] | 13
7 | Cc1cc(=O)c2c(OCC(C)(CO)CO)ncc(Cl)c2n1-c1c(Cl)cccc1Cl [Example 41, 8-chloro-1-(2,6-dichlorophenyl)-5-(3-hydroxy-2-(hydroxymethyl)-2-methylpropoxy)-2-methyl-1,6-naphthyridin-4(1H)-one] | 28
8 | Cc1cc(=O)c2c(OCC(C)(C)O)ncc(Cl)c2n1-c1c(Cl)cccc1Cl [Example 42, 8-chloro-1-(2,6-dichlorophenyl)-5-(2-hydroxy-2-methylpropoxy)-2-methyl-1,6-naphthyridin-4(1H)-one] | 15
9 | Cc1cc(=O)c2c(N[C@@H]3COC[C@H]3O)ncc(Cl)c2n1-c1c(Cl)cc(C#N)cc1Cl [Example 43, 3,5-dichloro-4-(8-chloro-5-(((3R,4S)-4-hydroxytetrahydrofuran-3-yl)amino)-2-methyl-4-oxo-1,6-naphthyridin-1(4H)-yl)benzonitrile] | 26
10 | Cc1cc(=O)c2c(NOCCO)ncc(Cl)c2n1-c1c(Cl)cc(C#N)cc1Cl [Example 44, 3,5-dichloro-4-(8-chloro-5-((2-hydroxyethoxy)amino)-2-methyl-4-oxo-1,6-naphthyridin-1(4H)-yl)benzonitrile] | 56
11 | Cc1cc(=O)c2c(Nc3nnnn3C)ncc(Cl)c2n1-c1c(Cl)cccc1Cl [Example 45, 8-chloro-1-(2,6-dichlorophenyl)-2-methyl-5-((1-methyl-1H-tetrazol-5-yl)amino)-1,6-naphthyridin-4(1H)-one] | 149
12 | Cc1cc(=O)c2c(Oc3nnnn3C)ncc(Cl)c2n1-c1c(Cl)cccc1Cl [Example 46, 8-chloro-1-(2,6-dichlorophenyl)-2-methyl-5-((1-methyl-1H-tetrazol-5-yl)oxy)-1,6-naphthyridin-4(1H)-one] | 128
13 | Cc1cc(=O)c2c(Nc3nnn(C)n3)ncc(Cl)c2n1-c1c(Cl)cccc1Cl [Example 47, 8-chloro-1-(2,6-dichlorophenyl)-2-methyl-5-((2-methyl-2H-tetrazol-5-yl)amino)-1,6-naphthyridin-4(1H)-one] | 59
14 | Cc1cc(=O)c2c(OCCO)ncc(Cl)c2n1-c1c(Cl)cccc1Cl [Example 48, 8-chloro-1-(2,6-dichlorophenyl)-5-(2-hydroxyethoxy)-2-methyl-1,6-naphthyridin-4(1H)-one] | 9
15 | Cc1cc(=O)c2c(NOCCO)ncc(Cl)c2n1-c1c(Cl)cccc1Cl [Example 49, 8-chloro-1-(2,6-dichlorophenyl)-5-((2-hydroxyethoxy)amino)-2-methyl-1,6-naphthyridin-4(1H)-one] | 42
16 | Cc1cc(=O)c2c(OCC3COC3)ncc(Cl)c2n1-c1c(Cl)cccc1Cl [Example 50, 8-chloro-1-(2,6-dichlorophenyl)-2-methyl-5-(oxetan-3-ylmethoxy)-1,6-naphthyridin-4(1H)-one] | 11
17 | CS(=O)(=O)CCNc1ncc(Cl)c2c1c(=O)cc(CO)n2-c1c(Cl)cccc1Cl [Example 51, 8-chloro-1-(2,6-dichlorophenyl)-2-(hydroxymethyl)-5-((2-(methylsulfonyl)ethyl)amino)-1,6-naphthyridin-4(1H)-one] | 41
18 | Cc1cc(=O)c2c(OCC(O)CO)ncc(C3CC3)c2n1-c1c(Cl)cccc1Cl (stereo not drawn) [Example 52, 8-cyclopropyl-1-(2,6-dichlorophenyl)-5-(2,3-dihydroxypropoxy)-2-methyl-1,6-naphthyridin-4(1H)-one] | 73
19 | COCc1cc(=O)c2c(OCC(CO)CO)ncc(Cl)c2n1-c1c(Cl)cccc1Cl [Example 53, 8-chloro-1-(2,6-dichlorophenyl)-5-(3-hydroxy-2-(hydroxymethyl)propoxy)-2-(methoxymethyl)-1,6-naphthyridin-4(1H)-one] | 28
20 | COCc1cc(=O)c2c(OCC(O)CO)ncc(Cl)c2n1-c1c(Cl)cccc1Cl (stereo not drawn) [Example 54, 8-chloro-1-(2,6-dichlorophenyl)-5-(2,3-dihydroxypropoxy)-2-(methoxymethyl)-1,6-naphthyridin-4(1H)-one] | 29
21 | N#Cc1cccc(Cl)c1-n1c(C2CC2)cc(=O)c2c(OCC(O)CO)ncc(Cl)c21 (stereo not drawn) [Example 55, 3-chloro-2-(8-chloro-2-cyclopropyl-5-(2,3-dihydroxypropoxy)-4-oxo-1,6-naphthyridin-1(4H)-yl)benzonitrile] | 54
22 | Cc1cc(=O)c2c(NCCc3c[nH]cn3)cncc2n1-c1c(Cl)cc(C#N)cc1Cl [Example 56, 4-(5-((2-(1H-imidazol-4-yl)ethyl)amino)-2-methyl-4-oxo-1,7-naphthyridin-1(4H)-yl)-3,5-dichlorobenzontrile] | 197
23 | CC1(C)OCC(COc2ncc(Cl)c3c2c(=O)cc(CO)n3-c2c(Cl)cccc2Cl)O1 (stereo not drawn) [Example 57, 8-chloro-1-(2,6-dichlorophenyl)-5-((2,2-dimethyl-1,3-dioxolan-4-yl)methoxy)-2-(hydroxymethyl)-1,6-naphthyridin-4(1H)-one] | 32
24 | O=c1cc(CO)n(-c2c(Cl)cc(F)cc2Cl)c2c(Cl)cnc(OCC(O)CO)c12 (stereo not drawn) [Example 60, 8-Chloro-1-(2,6-dichloro-4-fluorophenyl)-5-(2,3-dihydroxypropoxy)-2-(hydroxymethyl)-1,6-naphthyridin-4(1H)-one] | 261
25 | O=c1cc(CO)n(-c2c(Cl)cc(F)cc2Cl)c2c(Cl)cnc(OCCO)c12 [Example 61, 8-Chloro-1-(2,6-dichloro-4-fluorophenyl)-5-(2-hydroxyethoxy)-2-(hydroxymethyl)-1,6-naphthyridin-4(1H)-one] | 68
26 | O=c1cc(C(F)F)n(-c2c(Cl)cccc2Cl)c2c(Cl)cnc(OCC(O)CO)c12 (stereo not drawn) [Example 62, 8-Chloro-1-(2,6-dichlorophenyl)-2-(difluoromethyl)-5-(2,3-dihydroxypropoxy)-1,6-naphthyridin-4(1H)-one] | 13
27 | N#Cc1cc(=O)c2c(OCC(O)CO)ncc(Cl)c2n1-c1c(Cl)cccc1Cl (stereo not drawn) [Example 63, 8-Chloro-1-(2,6-dichlorophenyl)-5-(2,3-dihydroxpropoxy)-4-oxo-1,4-dihydro-1,6-naphthyridine-2-carbonitrile] | 16
